For data set [1] the following is noted: literature sources; sildenafil base value marked experimentally determined; cited from earlier work.
The conditions of data set [2]: after 15 minutes exposure to an infrared bulb; cited from earlier work.
For data set [3] the following is noted: http://www.drugbank.ca/; cited from earlier work.
The nature of data set [4]: Visually determined saturated solubility in various solvents. It counts as physicochemical. The method, then:
The solubility experiments were performed by weighing 0.5±0.05 g of each excipient into glass vials (28 mL). The API (5.0±0.5 mg) was weighed by difference on a plastic weigh boat and transferred into the corresponding vial. […] Once saturation was achieved the mg/g API to solvent ratio was recorded.

Where a name gives a salt, the structure may show the parent alone.

`O=C(O)Cc1ccccc1Nc1c(Cl)cccc1Cl` [Diclofenac diethyl amine]: the “mg/ml figure listed among physicochemical properties (solubility)” value in data set [1] is 4.1 mg/mL.

Take `O=[N+]([O-])OCC(CO[N+](=O)[O-])O[N+](=O)[O-]` [nitroglycerin]: in data set [2], the “Fold increase in permeation” value is on record as 2-3 fold.

By Log P is commonly meant the decadic logarithm of the partition coefficient of the neutral form, usually between octanol and water. On to `Nc1nc2c(ncn2COCCO)c(=O)[nH]1` [Acyclovir], for which, in data set [3], the “Log P” value is −1.56. The “Visually determined saturated solubility” value in data set [4] (Solvent Arlasolve DMI) is below 0.29 mg/g; in data set [4] (Solvent Diethyl Ether), below 0.54 mg/g; in data set [4] (Solvent EtOH), below 0.35 mg/g; in data set [4] (Solvent IPA) it was below 0.34 mg/g; in data set [4] (Solvent Isoamyl Alcohol) it was below 0.31 mg/g; in data set [4] (Solvent MeOH), 0.29 to 0.62 mg/g. Besides, the “Visually determined saturated solubility” value was 0.799 to 1.07 mg/g in data set [4] (Solvent PEG-400), 1.66 to 2.39 mg/g in data set [4] (Solvent PG), 0.54 to 1.08 mg/g in data set [4] (Solvent Phenoxyethanol) and below 0.30 mg/g in data set [4] (Solvent Transcutol P).

`O=C(O)Cc1ccccc1Nc1c(Cl)cccc1Cl` [Diclofenac free acid]: the “Visually determined saturated solubility” value in data set [4] (Solvent Arlasolve DMI) was in the range of 57.90 to 110.45 mg/g; in data set [4] (Solvent Diethyl Ether), 21.28 to 49.89 mg/g; in data set [4] (Solvent EtOH), 31.60 to 62.79 mg/g; in data set [4] (Solvent IPA), 29.97 to 58.09 mg/g; in data set [4] (Solvent Isoamyl Alcohol), 34.25 to 53.55 mg/g; in data set [4] (Solvent MeOH), 34.43 to 68.06 mg/g. In addition, the “Visually determined saturated solubility” value in data set [4] (Solvent PEG-400) was 28.83 to 51.73 mg/g; in data set [4] (Solvent PG) it was 10.15 to 20.50 mg/g; in data set [4] (Solvent Phenoxyethanol) it was 34.32 to 81.12 mg/g; in data set [4] (Solvent Transcutol P), 108.73 to 162.17 mg/g.

Take `CCCc1nn(C)c2c(=O)[nH]c(-c3cc(S(=O)(=O)N4CCN(C)CC4)ccc3OCC)nc12` [Sildenafil citrate]: the “Visually determined saturated solubility” value is below 0.88 mg/g in data set [4] (Solvent Arlasolve DMI); below 0.90 mg/g in data set [4] (Solvent Diethyl Ether); 0.54 to 1.06 mg/g in data set [4] (Solvent EtOH); below 1.27 mg/g in data set [4] (Solvent IPA); below 0.45 mg/g in data set [4] (Solvent Isoamyl Alcohol); 6.60 to 10.02 mg/g in data set [4] (Solvent MeOH). Further, the “Visually determined saturated solubility” value is 3.85 to 6.32 mg/g in data set [4] (Solvent PEG-400), 1.90 to 2.86 mg/g in data set [4] (Solvent PG), 6.56 to 9.88 mg/g in data set [4] (Solvent Phenoxyethanol) and 2.14 to 2.85 mg/g in data set [4] (Solvent Transcutol P).

On to `CCCc1nn(C)c2c(=O)[nH]c(-c3cc(S(=O)(=O)N4CCN(C)CC4)ccc3OCC)nc12` [Sildenafil base], for which, in data set [1], the “mg/ml figure listed among physicochemical properties (solubility)” value is below 0.83 mg/mL.

(Values after patent publication US20150037394A1, “DRUG DELIVERY FORMULATIONS” (King's College London, priority 2011, published 2015).)
